Assay results published in patent publication US9980965B2, “Treatment of autoimmune disease” (MingSight Pharmaceuticals, Inc., priority 2014, dated 2018).
Where two headings read alike, the source gives them in different places. Marks after values point to notes of the source that are not given here.

Legend:
Human PKC gamma = Human PKC gamma (Homo sapiens, UniProt P05129); assay: In vitro PKC inhibition, PKC gamma; assay type: biochemical
Excerpt: (§1) The methods for these determinations have been described (Grant, et al. 2010, Eur J Pharmacol. 627:16-25).

Human PKC betaII = Human PKC betaII (Homo sapiens, UniProt P05771); assay: In vitro PKC inhibition, PKC betaII; assay type: biochemical
Chain of Human PKC betaII (P05771 1-673 isoform P05771-2): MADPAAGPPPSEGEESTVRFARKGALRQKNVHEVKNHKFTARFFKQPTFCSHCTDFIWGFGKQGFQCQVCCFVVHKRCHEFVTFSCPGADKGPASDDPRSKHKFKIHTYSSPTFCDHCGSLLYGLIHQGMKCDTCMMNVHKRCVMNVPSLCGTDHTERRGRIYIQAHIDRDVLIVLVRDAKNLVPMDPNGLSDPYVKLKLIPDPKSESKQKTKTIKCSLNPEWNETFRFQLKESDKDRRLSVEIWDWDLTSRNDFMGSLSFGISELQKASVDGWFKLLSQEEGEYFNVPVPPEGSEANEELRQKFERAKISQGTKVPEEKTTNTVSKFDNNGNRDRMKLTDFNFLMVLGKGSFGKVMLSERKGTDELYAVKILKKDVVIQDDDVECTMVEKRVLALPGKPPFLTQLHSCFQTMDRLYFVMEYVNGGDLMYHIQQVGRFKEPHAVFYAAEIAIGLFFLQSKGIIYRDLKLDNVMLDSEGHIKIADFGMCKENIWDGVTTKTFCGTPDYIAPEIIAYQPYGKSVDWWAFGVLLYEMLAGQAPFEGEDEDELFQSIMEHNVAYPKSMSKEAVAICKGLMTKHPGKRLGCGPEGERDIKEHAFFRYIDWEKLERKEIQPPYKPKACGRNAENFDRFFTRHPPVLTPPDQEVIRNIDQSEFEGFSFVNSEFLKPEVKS

[1] = Separate pharmacokinetics experiments in mice; assay type: in vivo; conditions: 60 mg/kg dose, oral
Human PKC betaI = Human PKC betaI (Homo sapiens, UniProt P05771); assay: In vitro PKC inhibition, PKC betaI; assay type: biochemical
Chain of Human PKC betaI (P05771 whole entry): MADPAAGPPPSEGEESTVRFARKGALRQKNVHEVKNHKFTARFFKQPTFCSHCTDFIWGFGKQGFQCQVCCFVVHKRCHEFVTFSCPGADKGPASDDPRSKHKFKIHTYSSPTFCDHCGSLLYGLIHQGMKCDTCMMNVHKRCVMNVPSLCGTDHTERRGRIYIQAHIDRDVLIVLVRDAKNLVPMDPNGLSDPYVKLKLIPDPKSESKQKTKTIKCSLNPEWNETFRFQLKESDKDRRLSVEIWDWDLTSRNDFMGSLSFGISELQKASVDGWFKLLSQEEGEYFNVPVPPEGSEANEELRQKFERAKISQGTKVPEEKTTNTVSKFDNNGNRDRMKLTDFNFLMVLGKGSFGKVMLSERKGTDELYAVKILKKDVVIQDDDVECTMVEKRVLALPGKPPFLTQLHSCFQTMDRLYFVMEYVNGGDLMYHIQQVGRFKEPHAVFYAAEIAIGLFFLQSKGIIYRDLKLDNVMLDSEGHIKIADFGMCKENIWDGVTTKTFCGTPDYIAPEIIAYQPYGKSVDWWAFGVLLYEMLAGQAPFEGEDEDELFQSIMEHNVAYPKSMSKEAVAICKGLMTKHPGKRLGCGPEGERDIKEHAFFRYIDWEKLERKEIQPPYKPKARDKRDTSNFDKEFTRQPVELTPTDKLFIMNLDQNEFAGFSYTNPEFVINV

pSHP2 (PKCβ cell assay) = assay: pSHP2 (PKCβ cell assay); assay type: cell-based
Excerpt: as §1

Human PKC delta = Human PKC delta (Homo sapiens, UniProt Q05655); assay: In vitro PKC inhibition, PKC delta; assay type: biochemical
Chain of Human PKC delta (Q05655 whole entry): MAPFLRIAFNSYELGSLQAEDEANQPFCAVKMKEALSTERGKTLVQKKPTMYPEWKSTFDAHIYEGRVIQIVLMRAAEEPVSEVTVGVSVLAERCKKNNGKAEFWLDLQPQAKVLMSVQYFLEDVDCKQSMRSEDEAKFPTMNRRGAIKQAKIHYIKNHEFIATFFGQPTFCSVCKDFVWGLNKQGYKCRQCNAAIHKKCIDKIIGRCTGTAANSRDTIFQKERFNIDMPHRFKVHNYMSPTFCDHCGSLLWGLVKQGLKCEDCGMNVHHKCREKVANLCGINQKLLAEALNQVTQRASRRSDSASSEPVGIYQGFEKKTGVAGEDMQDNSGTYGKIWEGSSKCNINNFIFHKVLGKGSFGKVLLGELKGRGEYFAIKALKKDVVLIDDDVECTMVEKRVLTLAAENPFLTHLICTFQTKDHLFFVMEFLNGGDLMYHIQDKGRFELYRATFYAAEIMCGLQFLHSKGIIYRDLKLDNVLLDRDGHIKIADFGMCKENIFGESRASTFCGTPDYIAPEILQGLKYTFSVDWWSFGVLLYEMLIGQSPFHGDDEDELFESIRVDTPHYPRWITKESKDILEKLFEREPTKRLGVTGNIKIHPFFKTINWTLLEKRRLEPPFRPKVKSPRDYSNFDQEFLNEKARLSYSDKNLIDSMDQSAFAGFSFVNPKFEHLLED
Excerpt: as §1

Human PKC iota = target: T1, Human PKC iota (Homo sapiens, UniProt P41743); assay: In vitro PKC inhibition, PKC iota; assay type: biochemical
T1 sequence (P41743 1-596): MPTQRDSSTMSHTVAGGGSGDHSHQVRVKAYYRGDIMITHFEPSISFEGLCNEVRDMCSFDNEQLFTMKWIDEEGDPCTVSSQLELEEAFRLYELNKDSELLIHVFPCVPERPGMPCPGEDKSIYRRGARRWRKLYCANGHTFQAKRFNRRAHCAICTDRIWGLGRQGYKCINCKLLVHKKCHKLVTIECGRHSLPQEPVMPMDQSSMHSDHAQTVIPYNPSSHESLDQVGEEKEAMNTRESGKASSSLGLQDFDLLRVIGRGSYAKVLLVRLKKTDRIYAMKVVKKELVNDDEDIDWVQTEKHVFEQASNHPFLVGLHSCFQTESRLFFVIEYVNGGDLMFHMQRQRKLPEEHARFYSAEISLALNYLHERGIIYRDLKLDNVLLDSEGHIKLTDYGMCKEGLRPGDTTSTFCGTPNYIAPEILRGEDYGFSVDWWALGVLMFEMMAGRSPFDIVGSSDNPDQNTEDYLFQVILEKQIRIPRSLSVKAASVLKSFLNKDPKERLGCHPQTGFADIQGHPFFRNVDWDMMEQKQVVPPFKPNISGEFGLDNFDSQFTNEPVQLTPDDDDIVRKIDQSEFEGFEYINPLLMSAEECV
Excerpt: as §1

[2] = system: EAE induced by MBP69-88/CFA immunization and pertussis toxin injection; assay type: in vivo, Lewis rats; conditions: for Median day of onset (all rats) / Mean day of onset +/− SEM (sick rats) / EAE incidence (%): p.o.; for Median day of onset (all rats): vehicle 9.0; for Mean day of onset +/− SEM (sick rats): vehicle 9.3 +/− 0.6; for EAE incidence (%): vehicle 100.0%
Human PKC mu = target: T2, Human PKC mu (Homo sapiens, UniProt Q15139); assay: In vitro PKC inhibition, PKC mu; assay type: biochemical
T2 sequence (Q15139 1-912): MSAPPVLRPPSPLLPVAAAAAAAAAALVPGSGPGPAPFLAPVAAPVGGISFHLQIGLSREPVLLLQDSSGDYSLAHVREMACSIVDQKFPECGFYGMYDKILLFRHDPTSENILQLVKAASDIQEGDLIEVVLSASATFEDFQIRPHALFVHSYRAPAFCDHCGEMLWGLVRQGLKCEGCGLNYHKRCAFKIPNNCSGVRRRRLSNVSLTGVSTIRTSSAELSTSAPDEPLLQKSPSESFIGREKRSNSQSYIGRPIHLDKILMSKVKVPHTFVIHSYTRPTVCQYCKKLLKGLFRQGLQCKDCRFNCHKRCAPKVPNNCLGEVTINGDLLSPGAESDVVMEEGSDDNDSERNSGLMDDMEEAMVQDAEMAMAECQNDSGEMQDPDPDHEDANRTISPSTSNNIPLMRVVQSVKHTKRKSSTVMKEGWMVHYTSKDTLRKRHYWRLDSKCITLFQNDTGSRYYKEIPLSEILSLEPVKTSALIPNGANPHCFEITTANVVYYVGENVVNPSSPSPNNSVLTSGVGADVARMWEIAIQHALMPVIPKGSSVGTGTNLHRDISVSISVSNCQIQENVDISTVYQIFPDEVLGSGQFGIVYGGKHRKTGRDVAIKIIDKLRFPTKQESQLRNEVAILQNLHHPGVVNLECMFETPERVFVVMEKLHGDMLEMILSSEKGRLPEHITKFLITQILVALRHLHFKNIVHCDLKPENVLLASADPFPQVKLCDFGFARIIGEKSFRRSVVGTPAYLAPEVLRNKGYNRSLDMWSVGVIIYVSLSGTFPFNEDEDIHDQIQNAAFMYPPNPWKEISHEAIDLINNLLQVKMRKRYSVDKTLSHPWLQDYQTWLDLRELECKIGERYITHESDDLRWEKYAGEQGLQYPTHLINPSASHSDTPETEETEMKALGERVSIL
Excerpt: as §1

[3] = 15 and 30 mg/kg BID, compared to the vehicle control group

## Cc1ncc(F)c(Nc2n[nH]c3c2CN(C(=O)N2C[C@@H](C)N(CC4CCOCC4)C[C@@H]2C)C3(C)C)n1 [Compound A, 5-{[(2S,5R)-2,5-Dimethyl-4-(tetrahydro-2H-pyran-4-ylmethyl)piperazin-1-yl]carbonyl}-N-(5-fluoro-2-methylpyrimidin-4-yl)-6,6-dimethyl-1,4,5,6-tetrahydropyrrolo[3,4-c]pyrazol-3-amine]
Human PKC gamma
  IC50: 57.5 nM
Human PKC betaII
  IC50: 7.6 nM
Human PKC betaII; recombinant PKC beta (betaII in Table 1)
  Ki: 5.3 nM
[1]
  exposure in mice: unexpectedly low and insufficient exposure
Human PKC betaI
  IC50: 8.1 nM
pSHP2 (PKCβ cell assay)
  IC50: 9.8 nM
Human PKC delta
  IC50: > 1000 nM
  inhibition of PKC delta (in words): does not significantly inhibit
Human PKC iota
  IC50: > 1000 nM
[2]; 7.5 mg/kg, BID
  Median day of onset (all rats): 9.0 days
  Mean day of onset +/− SEM (sick rats): 9.0 ± 0.5 days
  EAE incidence (%): 100.0%
[2]; 15 mg/kg, BID
  Median day of onset (all rats): 8.0 days
  Mean day of onset +/− SEM (sick rats): 8.5 ± 0.4 days
  EAE incidence (%): 100.0%
[2]; 30 mg/kg, BID
  Mean day of onset +/− SEM (sick rats): 9.0 ± 0.9 days
[2]; 30 mg/kg, BID, p < 0.05 vs. vehicle
  EAE incidence (%): 50.0%*
[2]; 7.5, 15 and 30 mg/kg BID
  clinical score (EAE): dose-dependent decrease
[2]; [3]
  end severity (FIG. 5): significantly reduced
  maximum EAE severity (FIG. 5): significantly reduced
[2]; highest dose (30 mg/kg BID)
  EAE incidence (in words): significantly reduced
[2]; highest dose employed (30 mg/kg BID) vs. FTY720 0.5 mg/kg QD
  efficacy compared with fingolimod: appeared superior to fingolimod
Human PKC mu
  IC50: 314 nM

## CCCCCCCCc1ccc(CCC(N)(CO)CO)cc1 [FTY720, fingolimod, reference compound]
[2]; 0.5 mg/kg, QD
  Median day of onset (all rats): 8.0 days
  Mean day of onset +/− SEM (sick rats): 8.0 ± 0.3 days
